According to PubChem BioAssay AID248 (DTP/NCI, 2004):
Several values for one entry are separate records, joined by “and”; a condition that tells them apart may be missing. Identical values can stand only once. Inconclusive results and toxic doses are left out.

Tested on: L1210 leukemia ip in BDF1 mice, survival T/C
Assay: NCI In Vivo Anticancer Drug Screen. Data for tumor model L1210 Leukemia (intraperitoneal) in B6D2F1 (BDF1) mice
Settings: endpoint: mean survival time, higher = longer survival
How it was run: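 In this screen, tumor-bearing mice given compound are compared to those given vehicle, and their survival values are reported as a treated-to-control quotient.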

[1] = dose: 100.0 mg/kg/injection, schedule: Q04DX003 (ip), vehicle: Klucel (hydroxypropylcellulose) (HPC)
[2] = dose: 200.0 mg/kg/injection, schedule: Q04DX003 (ip), vehicle: Klucel (hydroxypropylcellulose) (HPC)
[3] = dose: 400.0 mg/kg/injection, schedule: Q04DX003 (ip), vehicle: Klucel (hydroxypropylcellulose) (HPC)
[4] = dose: 100.0 mg/kg/injection, schedule: Q01DX009 (ip), vehicle: Klucel (hydroxypropylcellulose) (HPC)
[5] = dose: 200.0 mg/kg/injection, schedule: Q01DX009 (ip), vehicle: Klucel (hydroxypropylcellulose) (HPC)
[6] = dose: 400.0 mg/kg/injection, schedule: Q01DX009 (ip), vehicle: Klucel (hydroxypropylcellulose) (HPC)
[7] = dose: 100.0 mg/kg/injection, schedule: Q04DX002 (ip), vehicle: Klucel (hydroxypropylcellulose) (HPC)
[8] = dose: 100.0 mg/kg/injection, schedule: Q01DX001 (ip), vehicle: carboxymethylcellulose (CMC)
[9] = dose: 200.0 mg/kg/injection, schedule: Q01DX001 (ip), vehicle: carboxymethylcellulose (CMC)
[10] = dose: 400.0 mg/kg/injection, schedule: Q01DX001 (ip), vehicle: carboxymethylcellulose (CMC)
[11] = dose: 100.0 mg/kg/injection, schedule: Q01DX001 (ip), vehicle: saline
[12] = dose: 200.0 mg/kg/injection, schedule: Q01DX001 (ip), vehicle: saline
[13] = dose: 400.0 mg/kg/injection, schedule: Q01DX001 (ip), vehicle: saline
[14] = dose: 100.0 mg/kg/injection, schedule: Q01DX009 (ip), vehicle: saline with Tween-80
[15] = dose: 100.0 mg/kg/injection, schedule: Q04DX003 (ip), vehicle: saline with Tween-80
[16] = dose: 200.0 mg/kg/injection, schedule: Q01DX009 (ip), vehicle: saline with Tween-80
[17] = dose: 200.0 mg/kg/injection, schedule: Q04DX003 (ip), vehicle: saline with Tween-80
[18] = dose: 400.0 mg/kg/injection, schedule: Q01DX009 (ip), vehicle: saline with Tween-80
[19] = dose: 400.0 mg/kg/injection, schedule: Q04DX003 (ip), vehicle: saline with Tween-80
[20] = dose: 200.0 mg/kg/injection, schedule: Q04DX002 (ip), vehicle: Klucel (hydroxypropylcellulose) (HPC)
[21] = dose: 400.0 mg/kg/injection, schedule: Q04DX002 (ip), vehicle: Klucel (hydroxypropylcellulose) (HPC)
[22] = dose: 50.0 mg/kg/injection, schedule: Q01DX009 (ip), vehicle: saline with Tween-80

## CCCCCCCCCCCCCCCCCCNC(=S)SCCCC
dose: 400.0 mg/kg/injection, schedule: Q04DX002 (ip), vehicle: saline + alcohol
  T/C: 100 % of control

## Cn1c(=O)c2ccccc2n(C)c1=O
[1]
  T/C: 96 % of control
[2]
  T/C: 102 % of control
[3]
  T/C: 100 % of control

## CCc1ccccc1NC(=O)Nc1ccccc1
[4]
  T/C: 94 % of control
[1]
  T/C: 103 % of control
[5]
  T/C: 98 % of control
[2]
  T/C: 94 % of control
[6]
  T/C: 105 % of control
[3]
  T/C: 95 % of control

## C=Cc1ccccn1
dose: 75.0 mg/kg/injection, schedule: Q01DX001 (ip), vehicle: saline
  T/C: 98 % of control
dose: 150.0 mg/kg/injection, schedule: Q01DX001 (ip), vehicle: saline
  T/C: 102 % of control
dose: 300.0 mg/kg/injection, schedule: Q01DX001 (ip), vehicle: saline
  T/C: 97 % of control

## CCCCCCCN1CCC(C(=O)CC)(c2cccc(O)c2)CC1
dose: 12.5 mg/kg/injection, schedule: Q01DX009 (ip), vehicle: Klucel (hydroxypropylcellulose) (HPC)
  T/C: 106 % of control
dose: 25.0 mg/kg/injection, schedule: Q01DX009 (ip), vehicle: Klucel (hydroxypropylcellulose) (HPC)
  T/C: 98 % of control
dose: 50.0 mg/kg/injection, schedule: Q01DX009 (ip), vehicle: Klucel (hydroxypropylcellulose) (HPC)
  T/C: 93 % of control and 87 % of control
[7]
  T/C: 93 % of control

## O=C(Nc1ccc(Br)cc1)Nc1ccccc1F
[4]
  T/C: 98 % of control
[5]
  T/C: 93 % of control
[6]
  T/C: 98 % of control

## [N-]=[N+]=NCCC[CH2][Pb]([c]1ccccc1)([c]1ccccc1)[c]1ccccc1
dose: 50.0 mg/kg/injection, schedule: Q01DX001 (ip), vehicle: carboxymethylcellulose (CMC)
  T/C: 96 % of control
[8]
  T/C: 102 % of control
[9]
  T/C: 100 % of control
[10]
  T/C: 96 % of control

## CCOC(=O)c1ccc(N=Cc2cc(Cl)cc(Cl)c2O)cc1
[11]
  T/C: 95 % of control
[12]
  T/C: 100 % of control
[13]
  T/C: 93 % of control

## NNc1ccc(C(=O)O)cc1
[4]
  T/C: 100 % of control
[14]
  T/C: 98 % of control and 101 % of control
[1]
  T/C: 102 % of control
[15]
  T/C: 100 % of control and 101 % of control
[5]
  T/C: 96 % of control
[16]
  T/C: 93 % of control and 95 % of control
[2]
  T/C: 91 % of control
[17]
  T/C: 96 % of control and 108 % of control
[6]
  T/C: 100 % of control
[18]
  T/C: 117 % of control and 91 % of control
[3]
  T/C: 96 % of control
[19]
  T/C: 94 % of control and 96 % of control

## O=C(N=Nc1c(NNC(=O)c2ccc([N+](=O)[O-])cc2)c(O)c2ccccc2c1O)c1ccc([N+](=O)[O-])cc1
dose: 75.0 mg/kg/injection, schedule: Q04DX003 (ip), vehicle: saline
  T/C: 102 % of control
dose: 150.0 mg/kg/injection, schedule: Q04DX003 (ip), vehicle: saline
  T/C: 89 % of control
dose: 300.0 mg/kg/injection, schedule: Q04DX003 (ip), vehicle: saline
  T/C: 94 % of control

## CC(C(=O)c1ccc(O)c(O)c1)N1CCCCC1 (stereo not drawn)
[8]
  T/C: 102 % of control
[9]
  T/C: 102 % of control
[10]
  T/C: 96 % of control

## Cc1c([N+](=O)[O-])ccc2ccccc12
dose: 100.0 mg/kg/injection, schedule: Q01DX001 (ip), vehicle: other
  T/C: 103 % of control
[1]
  T/C: 108 % of control
dose: 200.0 mg/kg/injection, schedule: Q01DX001 (ip), vehicle: other
  T/C: 98 % of control
[2]
  T/C: 101 % of control
dose: 400.0 mg/kg/injection, schedule: Q01DX001 (ip), vehicle: other
  T/C: 103 % of control
[3]
  T/C: 100 % of control

## C#CC(O)(c1ccccc1)c1ccc(N(C)C)cc1 (stereo not drawn)
[15]
  T/C: 98 % of control
[17]
  T/C: 100 % of control
[19]
  T/C: 89 % of control

## CN(C)c1ccc(/C=C2/CCCC/C2=N/O)cc1
[14]
  T/C: 98 % of control
[16]
  T/C: 92 % of control
[18]
  T/C: 88 % of control

## O=C(Nc1ccc2ccccc2c1)c1ccccc1
dose: 100.0 mg/kg/injection, schedule: Q01DX009 (ip), vehicle: saline sonified
  T/C: 104 % of control
[1]
  T/C: 97 % of control
dose: 200.0 mg/kg/injection, schedule: Q01DX009 (ip), vehicle: saline sonified
  T/C: 96 % of control
[2]
  T/C: 93 % of control
dose: 400.0 mg/kg/injection, schedule: Q01DX009 (ip), vehicle: saline sonified
  T/C: 93 % of control
[3]
  T/C: 92 % of control

## CC(C)N(C)c1ccc(N=Nc2cc(Cl)ccc2Cl)cc1
[15]
  T/C: 98 % of control
[17]
  T/C: 102 % of control
[19]
  T/C: 104 % of control

## ON=C(c1ccccc1)c1ccccc1
[14]
  T/C: 101 % of control
[16]
  T/C: 105 % of control

## O=C/C(=C\C=C\c1ccc([N+](=O)[O-])cc1)c1ccccc1
dose: 75.0 mg/kg/injection, schedule: Q01DX001 (ip), vehicle: Klucel (hydroxypropylcellulose) (HPC)
  T/C: 86 % of control
dose: 150.0 mg/kg/injection, schedule: Q01DX001 (ip), vehicle: Klucel (hydroxypropylcellulose) (HPC)
  T/C: 88 % of control
dose: 300.0 mg/kg/injection, schedule: Q01DX001 (ip), vehicle: Klucel (hydroxypropylcellulose) (HPC)
  T/C: 89 % of control

## Nc1nc(N)nc(NC(=O)CNCc2ccccc2)n1
[15]
  T/C: 101 % of control and 105 % of control
[17]
  T/C: 97 % of control and 107 % of control
[19]
  T/C: 97 % of control and 102 % of control

## CC(C)NC(=O)N(c1ccccc1)C(C)C
[15]
  T/C: 98 % of control
[17]
  T/C: 89 % of control
[19]
  T/C: 89 % of control

## CC(=O)c1ccc(N=Nc2c(N)nc(N)[nH]c2=O)cc1
[8]
  T/C: 101 % of control
[9]
  T/C: 106 % of control
[10]
  T/C: 119 % of control

## COC(=O)c1ccccc1C(=O)c1ccccc1
dose: 100.0 mg/kg/injection, schedule: Q04DX003 (ip), vehicle: carboxymethylcellulose (CMC)
  T/C: 101 % of control
dose: 200.0 mg/kg/injection, schedule: Q04DX003 (ip), vehicle: carboxymethylcellulose (CMC)
  T/C: 102 % of control
dose: 400.0 mg/kg/injection, schedule: Q04DX003 (ip), vehicle: carboxymethylcellulose (CMC)
  T/C: 96 % of control

## C=CCc1ccc(OC(=O)Nc2ccccc2)c(OC)c1
[7]
  T/C: 87 % of control
[20]
  T/C: 87 % of control
[21]
  T/C: 87 % of control

## C=CCOc1c(Cl)cc(Cl)cc1Cl
[11]
  T/C: 100 % of control
[12]
  T/C: 100 % of control
[13]
  T/C: 100 % of control

## [Br][La]([Br])[Br]
dose: 100.0 mg/kg/injection, schedule: Q04DX003 (ip), vehicle: saline
  T/C: 89 % of control
dose: 200.0 mg/kg/injection, schedule: Q04DX003 (ip), vehicle: saline
  T/C: 91 % of control
dose: 400.0 mg/kg/injection, schedule: Q04DX003 (ip), vehicle: saline
  T/C: 91 % of control

## O=C(Nc1cc(Cl)c(Cl)cc1Cl)Nc1cc(Cl)ccc1Oc1ccc(Cl)cc1S(=O)(=O)O
dose: 50.0 mg/kg/injection, schedule: Q04DX003 (ip), vehicle: alcohol
  T/C: 97 % of control
dose: 100.0 mg/kg/injection, schedule: Q04DX003 (ip), vehicle: alcohol
  T/C: 103 % of control
dose: 200.0 mg/kg/injection, schedule: Q04DX003 (ip), vehicle: alcohol
  T/C: 103 % of control

## S=C(N/N=C/c1ccccn1)N/N=C/c1ccccn1
dose: 20.0 mg/kg/injection, schedule: Q01DX009 (ip), vehicle: saline with Tween-80
  T/C: 105 % of control
dose: 33.0 mg/kg/injection, schedule: Q01DX009 (ip), vehicle: saline with Tween-80
  T/C: 100 % of control
[22]
  T/C: 152 % of control
[15]
  T/C: 103 % of control

## ClSSc1c2ccccc2cc2ccccc12
dose: 75.0 mg/kg/injection, schedule: Q01DX001 (ip), vehicle: carboxymethylcellulose (CMC)
  T/C: 91 % of control
dose: 150.0 mg/kg/injection, schedule: Q01DX001 (ip), vehicle: carboxymethylcellulose (CMC)
  T/C: 92 % of control
dose: 300.0 mg/kg/injection, schedule: Q01DX001 (ip), vehicle: carboxymethylcellulose (CMC)
  T/C: 88 % of control

## O=C1c2cccc3c([N+](=O)[O-])ccc(c23)C(=O)N1Cc1ccco1
[7]
  T/C: 108 % of control
[20]
  T/C: 97 % of control
[21]
  T/C: 102 % of control

## OC1c2ccccc2-c2ccc(Cl)cc21 (stereo not drawn)
dose: 25.0 mg/kg/injection, schedule: Q01DX009 (ip), vehicle: saline with Tween-80
  T/C: 97 % of control
[22]
  T/C: 106 % of control
[14]
  T/C: 100 % of control and 90 % of control
